Earlier results as cited in patent US20220395469A1, “TRANSDERMAL DRUG DELIVERY SYSTEM FOR KETAMINE” (GUANGZHOU DAZHOU BIOMEDICINE LTD., priority 2017, published 2022).

Assays:
NMDA receptor = details: in vitro
[1] = not given; remark: listed apart in the source
[2] = three-compartment model, 70-kg human (Fanta et al.)

For `CN[C@@]1(c2ccccc2Cl)CCCCC1=O` [R-ketamine], the “psychotomimetic side effects and abuse liability” value (Yang et al.) is given as “free of psychotomimetic side effects and abuse liability” and the antidepressant effectiveness (animal model studies, versus S-ketamine (Yang et al.)) is given as “more effective as an antidepressant than S-ketamine”.
For `CN[C@]1(c2ccccc2Cl)CCCCC1=O` [S-ketamine], the “affinity on NMDA receptor binding relative to R-ketamine” value (NMDA receptor) is listed as roughly 4 fold.
For `CNC1(c2ccccc2Cl)CCCCC1=O` (centres unmarked) [ketamine], the absolute oral bioavailability ([1]; in humans) is listed as 10-20%, the “systemic (primarily hepatic) clearance” value ([1]; in vivo) is listed as “about 19 ml/min·kg” and the V1 [1, 2] is listed as 133 L. For the same compound, the clearance [1, 2] was 79.8 L/h, the “micro constant k12” value [1, 2] was 0.174 h⁻¹ and the “micro constant k13” value [1, 2] was 1.18 h⁻¹. The “micro constant k21” value [1, 2] was 0.124 h⁻¹ and the “micro constant k31” value [1, 2] was 1.59 h⁻¹.
